The values that follow come from patent US7601716B2, “Pyridopyrazines and derivatives thereof as ALK and c-Met inhibitors” (Cephalon, Inc., priority 2006, dated 2009).

Some results are limits rather than exact numbers.

baculovirus-expressed ALK, sequence (Q9UM73 19-1620): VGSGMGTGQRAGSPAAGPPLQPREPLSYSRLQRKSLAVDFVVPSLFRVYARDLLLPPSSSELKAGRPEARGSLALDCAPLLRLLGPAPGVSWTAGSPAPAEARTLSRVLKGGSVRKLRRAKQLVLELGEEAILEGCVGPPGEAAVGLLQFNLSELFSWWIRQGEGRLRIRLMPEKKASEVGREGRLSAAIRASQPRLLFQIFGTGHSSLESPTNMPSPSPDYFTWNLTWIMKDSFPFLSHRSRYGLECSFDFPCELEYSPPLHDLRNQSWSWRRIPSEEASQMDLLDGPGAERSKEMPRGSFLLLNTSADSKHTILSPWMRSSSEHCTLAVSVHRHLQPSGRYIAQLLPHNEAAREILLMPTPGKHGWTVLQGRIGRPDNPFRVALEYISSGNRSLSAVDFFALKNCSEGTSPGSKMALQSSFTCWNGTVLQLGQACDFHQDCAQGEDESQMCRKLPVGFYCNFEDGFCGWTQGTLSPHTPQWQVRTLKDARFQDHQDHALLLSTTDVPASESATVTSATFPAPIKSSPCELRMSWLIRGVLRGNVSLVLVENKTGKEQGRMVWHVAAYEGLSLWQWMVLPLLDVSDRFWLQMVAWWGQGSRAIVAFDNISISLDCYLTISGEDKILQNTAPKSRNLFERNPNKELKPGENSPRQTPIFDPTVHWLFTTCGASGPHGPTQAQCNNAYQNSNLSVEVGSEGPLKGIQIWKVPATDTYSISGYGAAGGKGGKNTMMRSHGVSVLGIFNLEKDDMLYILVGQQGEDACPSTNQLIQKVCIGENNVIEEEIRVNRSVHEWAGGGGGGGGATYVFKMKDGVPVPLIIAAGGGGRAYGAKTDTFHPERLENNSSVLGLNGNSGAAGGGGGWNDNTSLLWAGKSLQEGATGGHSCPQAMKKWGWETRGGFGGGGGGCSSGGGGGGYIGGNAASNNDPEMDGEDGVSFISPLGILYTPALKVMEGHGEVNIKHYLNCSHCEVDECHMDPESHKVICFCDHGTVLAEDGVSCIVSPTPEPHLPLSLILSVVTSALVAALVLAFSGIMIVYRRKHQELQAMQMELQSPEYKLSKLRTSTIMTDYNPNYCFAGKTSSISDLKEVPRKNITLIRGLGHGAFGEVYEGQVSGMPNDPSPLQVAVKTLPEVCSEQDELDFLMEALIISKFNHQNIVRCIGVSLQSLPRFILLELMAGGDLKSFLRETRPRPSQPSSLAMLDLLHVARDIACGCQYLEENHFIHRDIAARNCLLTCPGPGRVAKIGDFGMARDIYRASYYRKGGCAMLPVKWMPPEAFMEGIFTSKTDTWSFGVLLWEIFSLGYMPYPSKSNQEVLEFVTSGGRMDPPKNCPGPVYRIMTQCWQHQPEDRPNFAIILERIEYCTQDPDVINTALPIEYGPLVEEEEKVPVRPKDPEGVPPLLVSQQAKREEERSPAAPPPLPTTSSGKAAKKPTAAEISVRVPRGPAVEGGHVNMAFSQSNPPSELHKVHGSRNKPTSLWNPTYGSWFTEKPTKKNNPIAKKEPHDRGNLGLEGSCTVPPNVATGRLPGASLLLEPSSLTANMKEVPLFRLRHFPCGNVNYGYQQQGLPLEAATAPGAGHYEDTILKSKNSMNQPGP

This assay has as its target baculovirus-expressed ALK (Homo sapiens, UniProt Q9UM73). The experiment in a line: ALK Kinase Assay (ELISA/TRF, PLC-γ substrate). Further: 1 µM ATP (Km level). The format is biochemical. Conditions: read-out: ALK Kinase Inhibition (IC50). Summed up: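 ALK at 30 ng/ml phosphorylated plate-bound PLC-γ–GST fusion (coated from 10 μg/mL) during 15 minutes at 37° C. Product was detected with Eu-N1 PT66 anti-phosphotyrosine antibody and measured by time-resolved fluorescence.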
On to `O=C(c1ccc(-c2cnc3c(c2)N(Cc2cc(Cl)ccc2C(F)(F)F)CCN3)cc1)N1CCN(c2ncccn2)CC1` [Example 369, (4-{1-[5-Chloro-2-(trifluoromethyl)benzyl]-1,2,3,4-tetrahydropyrido[2,3-b]pyrazin-7-yl}phenyl)-(4-pyrimidin-2-ylpiperazin-1-yl)methanone], for which the half-inhibitory concentration (IC50) (commonly the concentration that gives 50% inhibition) was in the range of 100 to 1000 nM.
For `O=C(c1cccc(-c2cnc3c(c2)N(Cc2cc(Cl)ccc2C(F)(F)F)CCN3)c1)N1CCC(N2CCOCC2)CC1` [Example 364, (3-{1-[5-Chloro-2-(trifluoromethyl)benzyl]-1,2,3,4-tetrahydropyrido[2,3-b]pyrazin-7-yl}phenyl)-(4-morpholin-4-ylpiperidin-1-yl)methanone] the value was 100 to 1000 nM.
Consider `O=C(NC1CCc2ccccc21)c1ccc(-c2cnc3c(c2)N(Cc2cc(Cl)ccc2C(F)(F)F)CCN3)cc1` (stereo not drawn) [Example 410, 4-{1-[5-Chloro-2-(trifluoromethyl)benzyl]-1,2,3,4-tetrahydropyrido[2,3-b]pyrazin-7-yl}-N-indan-1-ylbenzamide], for which the IC50 fell in the range of 100 to 1000 nM.
For `O=C(c1cccc(-c2cnc3c(c2)N(Cc2cc(Cl)ccc2C(F)(F)F)CCN3)c1)N1CCN(CCc2ccccc2)CC1` [Example 359, (3-{1-[5-Chloro-2-(trifluoromethyl)benzyl]-1,2,3,4-tetrahydropyrido[2,3-b]pyrazin-7-yl}phenyl)-(4-phenethylpiperazin-1-yl)methanone] the value was 100 to 1000 nM.
The value for `COc1ccc(CNC(=O)c2ccc(-c3cnc4c(c3)N(Cc3cc(Cl)ccc3C(F)(F)F)CCN4)cc2)cc1` [Example 419, 4-{1-[5-Chloro-2-(trifluoromethyl)benzyl]-1,2,3,4-tetrahydropyrido[2,3-b]pyrazin-7-yl}-N-(4-methoxybenzyl)benzamide] was 100 to 1000 nM; that for `O=C(NC1CCN(Cc2ccccc2)C1)c1ccc(-c2cnc3c(c2)N(Cc2cc(Cl)ccc2C(F)(F)F)CCN3)cc1` (stereo not drawn) [Example 427, N-(1-Benzylpyrrolidin-3-yl)-4-{1-[5-chloro-2-(trifluoromethyl)benzyl]-1,2,3,4-tetrahydropyrido[2,3-b]pyrazin-7-yl}benzamide] was 100 to 1000 nM; that for `O=C(NCC(c1ccccc1)c1ccccc1)c1cccc(-c2cnc3c(c2)N(Cc2cc(Cl)ccc2C(F)(F)F)CCN3)c1` [Example 328, 3-{1-[5-Chloro-2-(trifluoromethyl)benzyl]-1,2,3,4-tetrahydropyrido[2,3-b]pyrazin-7-yl}-N-(2,2-diphenylethyl)benzamide] was 100 to 1000 nM.
`O=C(c1ccc(-c2cnc3c(c2)N(Cc2cc(Cl)ccc2C(F)(F)F)CCN3)cc1)N1CCC[C@H]1CN1CCCC1` [Example 430, (4-{1-[5-Chloro-2-(trifluoromethyl)benzyl]-1,2,3,4-tetrahydropyrido[2,3-b]pyrazin-7-yl}phenyl)-((S)-2-pyrrolidin-1-ylmethylpyrrolidin-1-yl)methanone]: the IC50 is < 100 nM.
For the compound `O=C(c1ccc(-c2cnc3c(c2)N(Cc2cc(Cl)ccc2C(F)(F)F)CCN3)cc1)N1CCC(Cc2ccccc2)CC1` [Example 378, (4-Benzylpiperidin-1-yl)-(4-{1-[5-chloro-2-(trifluoromethyl)benzyl]-1,2,3,4-tetrahydropyrido[2,3-b]pyrazin-7-yl}phenyl)methanone], the IC50 lay within 1000 to 10000 nM.
`O=C(NCc1ccccc1)c1ccc(-c2cnc3c(c2)N(Cc2cc(Cl)ccc2C(F)(F)F)CCN3)cc1` [Example 421, N-Benzyl-4-{1-[5-chloro-2-(trifluoromethyl)benzyl]-1,2,3,4-tetrahydropyrido[2,3-b]pyrazin-7-yl}benzamide]: the concentration for half-maximal inhibition (IC50) is 100 to 1000 nM.
Take `O=C(c1ccc(-c2cnc3c(c2)N(Cc2cc(Cl)ccc2C(F)(F)F)CCN3)cc1)N1CCN(c2ccccc2C(F)(F)F)CC1` [Example 381, (4-{1-[5-Chloro-2-(trifluoromethyl)benzyl]-1,2,3,4-tetrahydropyrido[2,3-b]pyrazin-7-yl}phenyl)-{4-[2-(trifluoromethyl)phenyl]piperazin-1-yl}methanone]: the IC50 was 100 to 1000 nM.
The value for `O=C(c1ccc(-c2cnc3c(c2)N(Cc2cc(Cl)ccc2C(F)(F)F)CCN3)cc1)N1CCC2(CC1)OCc1ccccc12` [Example 434, {4-[1-(5-Chloro-2-trifluoromethyl-benzyl)-1,2,3,4-tetrahydropyrido[2,3-b]pyrazin-7-yl]-phenyl}-(spiro[isobenzofuran-1(3H), 4′-piperidine]-1-yl)methanone] was 100 to 1000 nM; that for `O=C(c1cccc(-c2cnc3c(c2)N(Cc2cc(Cl)ccc2C(F)(F)F)CCN3)c1)N1CCC2(CC1)C(=O)NCN2c1ccccc1` [Example 318, 8-(3-{1-[5-Chloro-2-(trifluoromethyl)benzyl]-1,2,3,4-tetrahydropyrido[2,3-b]pyrazin-7-yl}benzoyl)-1-phenyl-1,3,8-triaza-spiro[4.5]decan-4-one] was 100 to 1000 nM.
On to `COc1cccc(CNC(=O)c2ccc(-c3cnc4c(c3)N(Cc3cc(Cl)ccc3C(F)(F)F)CCN4)cc2)c1` [Example 418, 4-{1-[5-Chloro-2-(trifluoromethyl)benzyl]-1,2,3,4-tetrahydropyrido[2,3-b]pyrazin-7-yl}-N-(3-methoxybenzyl)benzamide], for which the IC50 fell in the range of 100 to 1000 nM.
Turning to `O=C(c1ccc(-c2cnc3c(c2)N(Cc2cc(Cl)ccc2C(F)(F)F)CCN3)cc1)N1CCN(C(=O)C2CCCO2)CC1` (stereo not drawn) [Example 415, (4-{1-[5-Chloro-2-(trifluoromethyl)benzyl]-1,2,3,4-tetrahydropyrido[2,3-b]pyrazin-7-yl}phenyl)-[4-(tetrahydrofuran-2-carbonyl)piperazin-1-yl]methanone], the IC50 is < 100 nM.
As to `O=C(c1cccc(-c2cnc3c(c2)N(Cc2cc(Cl)ccc2C(F)(F)F)CCN3)c1)N1CCC(n2c(=O)[nH]c3ccccc32)CC1` [Example 310, 1-[1-(3-{1-[5-Chloro-2-(trifluoromethyl)benzyl]-1,2,3,4-tetrahydropyrido[2,3-b]pyrazin-7-yl}benzoyl)piperidin-4-yl]-1,3-dihydrobenzoimidazol-2-one], the 50% inhibitory concentration (IC50) lay in the range of 100 to 1000 nM.
For `O=C(c1cccc(-c2cnc3c(c2)N(Cc2cc(Cl)ccc2C(F)(F)F)CCN3)c1)N1CCN(C(=O)C2CCCO2)CC1` (stereo not drawn) [Example 351, (3-{1-[5-Chloro-2-(trifluoromethyl)benzyl]-1,2,3,4-tetrahydropyrido[2,3-b]pyrazin-7-yl}phenyl)-[4-(tetrahydrofuran-2-carbonyl)piperazin-1-yl]methanone], the 50% inhibitory concentration (IC50) lay within 100 to 1000 nM.
Turning to `O=C(c1cccc(-c2cnc3c(c2)N(Cc2cc(Cl)ccc2C(F)(F)F)CCN3)c1)N1CCN(c2ncccn2)CC1` [Example 307, (3-{1-[5-Chloro-2-(trifluoromethyl)benzyl]-1,2,3,4-tetrahydropyrido[2,3-b]pyrazin-7-yl}phenyl)-(4-pyrimidin-2-ylpiperazin-1-yl)methanone], the IC50 was in the range of 100 to 1000 nM.
`O=C(NCc1csc(-c2ccccc2)n1)c1ccc(-c2cnc3c(c2)N(Cc2cc(Cl)ccc2C(F)(F)F)CCN3)cc1` [Example 407, 4-{1-[5-Chloro-2-(trifluoromethyl)benzyl]-1,2,3,4-tetrahydropyrido[2,3-b]pyrazin-7-yl}-N-(2-phenylthiazol-4-ylmethyl)benzamide]: the IC50 fell in the range of 100 to 1000 nM.
Consider `O=C(c1cccc(-c2cnc3c(c2)N(Cc2cc(Cl)ccc2C(F)(F)F)CCN3)c1)N1CCC[C@H]1CN1CCCC1` [Example 365, (3-{1-[5-Chloro-2-(trifluoromethyl)benzyl]-1,2,3,4-tetrahydropyrido[2,3-b]pyrazin-7-yl}phenyl)-((S)-2-pyrrolidin-1-ylmethylpyrrolidin-1-yl)methanone], for which the half-maximal inhibitory concentration (IC50) was < 100 nM.
With `O=C(c1cccc(-c2cnc3c(c2)N(Cc2cc(Cl)ccc2C(F)(F)F)CCN3)c1)N1CCCC1c1cccnc1` (stereo not drawn) [Example 366, (3-{1-[5-Chloro-2-(trifluoromethyl)benzyl]-1,2,3,4-tetrahydropyrido[2,3-b]pyrazin-7-yl}phenyl)-(2-pyridin-3-ylpyrrolidin-1-yl)methanone], the half-maximal inhibitory concentration (IC50) was 100 to 1000 nM.
The value for `COc1ccccc1N1CCN(C(=O)c2ccc(-c3cnc4c(c3)N(Cc3cc(Cl)ccc3C(F)(F)F)CCN4)cc2)CC1` [Example 373, (4-{1-[5-Chloro-2-(trifluoromethyl)benzyl]-1,2,3,4-tetrahydropyrido[2,3-b]pyrazin-7-yl}phenyl)-[4-(2-methoxyphenyl)piperazin-1-yl]methanone] was 100 to 1000 nM.
As for `COc1ccccc1N1CCN(C(=O)c2cccc(-c3cnc4c(c3)N(Cc3cc(Cl)ccc3C(F)(F)F)CCN4)c2)CC1` [Example 311, (3-{1-[5-Chloro-2-(trifluoromethyl)benzyl]-1,2,3,4-tetrahydropyrido[2,3-b]pyrazin-7-yl}phenyl)-[4-(2-methoxyphenyl)piperazin-1-yl]methanone], the 50% inhibitory concentration (IC50) lay in the range of 100 to 1000 nM.
For `COc1ccc(CNC(=O)c2cccc(-c3cnc4c(c3)N(Cc3cc(Cl)ccc3C(F)(F)F)CCN4)c2)cc1` [Example 354, 3-{1-[5-Chloro-2-(trifluoromethyl)benzyl]-1,2,3,4-tetrahydropyrido[2,3-b]pyrazin-7-yl}-N-(4-methoxybenzyl)benzamide], the IC50 was in the range of 100 to 1000 nM.
On to `O=C(c1cccc(-c2cnc3c(c2)N(Cc2cc(Cl)ccc2C(F)(F)F)CCN3)c1)N1CCC(Cc2ccccc2)CC1` [Example 316, (4-Benzylpiperidin-1-yl)-(3-{1-[5-Chloro-2-(trifluoromethyl)benzyl]-1,2,3,4-tetrahydropyrido[2,3-b]pyrazin-7-yl}phenyl)methanone], for which the half-inhibitory concentration (IC50) fell in the range of 100 to 1000 nM.
Take `O=C(c1cccc(-c2cnc3c(c2)N(Cc2cc(Cl)ccc2C(F)(F)F)CCN3)c1)N1CCN(c2ccc(Cl)cc2)CC1` [Example 308, [4-(4-Chlorophenyl)-piperazin-1-yl]-(3-{1-[5-Chloro-2-(trifluoromethyl)benzyl]-1,2,3,4-tetrahydropyrido[2,3-b]pyrazin-7-yl}phenyl)methanone]: the IC50 lay within 100 to 1000 nM.
`COc1ccccc1CN(C)C(=O)c1cccc(-c2cnc3c(c2)N(Cc2cc(Cl)ccc2C(F)(F)F)CCN3)c1` [Example 367, 3-{1-[5-Chloro-2-(trifluoromethyl)benzyl]-1,2,3,4-tetrahydropyrido[2,3-b]pyrazin-7-yl}-N-(2-methoxybenzyl)-N-methylbenzamide]: the IC50 fell in the range of 100 to 1000 nM.
